Molecules are shown by their SMILES.

One data set concerns the target T1, recombinant human GST-SYK (Homo sapiens, UniProt P43405).
T1 construct: purchased Carna Biosciences 08-176
The data set is described as follows: Homogeneous Time-Resolved Fluorescence (HTRF) assay for the recombinant human Syk enzyme. Type of data set: biochemical. As to conditions: GST-hSYK 5 pM, ATP 25 μM, 10-dose titration 10 μM to 0.508 nM; read-out: IC50. In a few lines: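 GST-hSYK fusion phosphorylates a peptide for 45 min at room temperature. Quenched with EDTA buffer containing 2 nM Eu-anti-phosphotyrosine antibody and 70 nM SA-APC. HTRF signal read after 30 min.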
(In general: Time-resolved FRET reads energy transfer from a long-lived donor to a nearby acceptor.)
Consider `Cc1cc(C)nc(Nc2cc(N)cnc2C(N)=O)c1` [Example 9, 5-amino-3-[(4,6-dimethylpyridin-2-yl)amino]pyridine-2-carboxamide], for which the IC50 stood at 2900 nM.

The same data set, now with this note: GST-hSYK 5 pM, ATP 25 μM, 10-dose titration 10 μM to 0.508 nM; read-out: rhSYK Activity (IC50 rating).
As for `Cc1cc(OC(C)C)cc(Nc2cc(N[C@@H]3CCCC[C@@H]3N)cnc2C(N)=O)n1` [Example 5.2, 5-{[(1R,2S)-2-aminocyclohexyl]amino}-3-{[6-methyl-4-(1-methylethoxy)pyridin-2-yl]amino}pyridine-2-carboxamide], the IC50 was below 10 nM. Regarding `Cc1cc(OCc2ccccc2)cc(Nc2cc(N[C@@H]3CCCC[C@@H]3N)cnc2C(N)=O)n1` [Example 5.3, 5-{[(1R,2S)-2-aminocyclohexyl]amino}-3-{[4-(benzyloxy)-6-methylpyridin-2-yl]amino}pyridine-2-carboxamide], the IC50 was below 10 nM. As for `CC(=O)NCC(N)CNc1cnc(C(N)=O)c(Nc2cc(C)cc(C)n2)c1` (centres unmarked) [Example 6.1, 5-{[3-(acetylamino)-2-aminopropyl]amino}-3-[(4,6-dimethylpyridin-2-yl)amino]pyridine-2-carboxamide], the IC50 lay within 10 to 100 nM. The same measure, in the same setting: then `Cc1nc(Nc2cc(N[C@@H]3CCCC[C@@H]3N)cnc2C(N)=O)ccc1C(N)=O` [Example 7, 5-{[(1R,2S)-2-aminocyclohexyl]amino}-3-[(5-carbamoyl-6-methylpyridin-2-yl)amino]pyridine-2-carboxamide], with below 10 nM; and `NC(=O)c1ncc(N[C@@H]2CCCC[C@@H]2N)cc1Nc1cccc(CN2CCNCC2)n1` [Example 8, 5-{[(1R,2S)-2-aminocyclohexyl]amino}-3-{[6-(piperazin-1-ylmethyl)pyridin-2-yl]amino}pyridine-2-carboxamide], with 100 to 1000 nM.

Regarding `Cc1cc(C)nc(Nc2cc(N)cnc2C(N)=O)c1` [Example 9, 5-amino-3-[(4,6-dimethylpyridin-2-yl)amino]pyridine-2-carboxamide], the half-maximal inhibitory concentration (IC50) lay within 1000 to 10000 nM.

As for `Cc1cc(C)nc(Nc2cc(NC(=O)CN)cnc2C(N)=O)c1` [Example 10, 3-[(4,6-dimethylpyridin-2-yl)amino]-5-(glycylamino)pyridine-2-carboxamide], the IC50 is 100 to 1000 nM. Turning to `Cc1cc(O)cc(Nc2cc(N[C@@H]3CCCC[C@@H]3N)cnc2C(N)=O)n1` [Example 11, 5-{[(1R,2S)-2-aminocyclohexyl]amino}-3-[(4-hydroxy-6-methylpyridin-2-yl)amino]pyridine-2-carboxamide], the IC50 lay in the range of 10 to 100 nM. Regarding `Cc1cc(C(=O)O)cc(Nc2cc(N[C@@H]3CCCC[C@@H]3N)cnc2C(N)=O)n1` [Example 12, 2-[(5-{[(1R,2S)-2-aminocyclohexyl]amino}-2-carbamoylpyridin-3-yl)amino]-6-methylpyridine-4-carboxylic acid], the IC50 lay within 10 to 100 nM. Consider `CCc1cccc(Nc2cc(N[C@@H]3CCCC[C@@H]3N)cnc2C(N)=O)n1` [Example 13, 5-{[(1R,2S)-2-aminocyclohexyl]amino}-3-[(6-ethylpyridin-2-yl)amino]pyridine-2-carboxamide], for which the IC50 was below 10 nM. For `Cc1cc(C)nc(Nc2cc(NCCCN)cnc2C(N)=O)c1` [Example 14, 5-[(3-aminopropyl)amino]-3-[(4,6-dimethylpyridin-2-yl)amino]pyridine-2-carboxamide], the IC50 fell in the range of 10 to 100 nM.

With `CCNC(=O)Nc1cnc(C(N)=O)c(Nc2cc(C)cc(C)n2)c1` [Example 15, 3-[(4,6-dimethylpyridin-2-yl)amino]-5-[(ethylcarbamoyl)amino]pyridine-2-carboxamide], the IC50 is 100 to 1000 nM.

On to `Cc1nc(Nc2cc(N[C@@H]3CCCC[C@@H]3N)cnc2C(N)=O)ccc1C(=O)O` [Example 16, 6-[(5-{[(1R,2S)-2-aminocyclohexyl]amino}-2-carbamoylpyridin-3-yl)amino]-2-methylpyridine-3-carboxylic acid], for which the IC50 is below 10 nM. Same read-out and setting: then `Cc1nc(Nc2cc(N[C@@H]3CCCC[C@@H]3N)cnc2C(N)=O)ccc1C(=O)N(C)C` [Example 17, 5-{[(1R,2S)-2-aminocyclohexyl]amino}-3-{[5-(dimethylcarbamoyl)-6-methylpyridin-2-yl]amino}pyridine-2-carboxamide], with 10 to 100 nM; and `CC1=CCCc2nc(Nc3cc(N[C@@H]4CCCC[C@@H]4N)cnc3C(N)=O)ccc21` [Example 18, 5-{[(1R,2S)-2-aminocyclohexyl]amino}-3-[(5-methyl-7,8-dihydroquinolin-2-yl)amino]pyridine-2-carboxamide], with below 10 nM.

Turning to `Cc1cc(C)nc(Nc2cc(NS(=O)(=O)CCN)cnc2C(N)=O)c1` [Example 19, 5-{[(2-aminoethyl)sulfonyl]amino}-3-[(4,6-dimethylpyridin-2-yl)amino]pyridine-2-carboxamide], the IC50 was in the range of 100 to 1000 nM.

The test system of another data set is PGD2.
Assay: not given
As to conditions: dosed intranasally, phase I/II, allergic rhinitis; cited from earlier work.
On to `Oc1cccc(Nc2ncc(F)c(Nc3cccc(O)c3)n2)c1` [Example R112], for which the PGD2 level entry is reported as “statistically significant decrease” and the clinical safety entry was “safe across a range of indicators”.

Tested on in another data set: not given
Assay: not given
As to conditions: phase II clinical trial, allergic rhinitis; cited from earlier work.
As to `Oc1cccc(Nc2ncc(F)c(Nc3cccc(O)c3)n2)c1` [Example R112], the efficacy versus placebo result was “lack of efficacy”.

As usually defined, the IC50 is the concentration at which inhibition is half-maximal.

The values are drawn from US9216173B2, “2-Pyridyl carboxamide-containing spleen tyrosine kinase (SYK) inhibitors” (Merck Sharp & Dohme Corp., priority 2011, dated 2015).
